Measured values: patent publication US8901146B2, “Aminoalkylpyrimidine derivatives as histamine H4 receptor antagonists” (Medicis Pharmaceutical Corporation, priority 2009, dated 2014)

Test system: Male BALB/c mice
Experiment: Murine atopic dermatitis model by multiple oxazolone challenges
Type: in vivo
Details: result in words
Experimental: Murine Atopic Dermatitis Model by Multiple Oxazolone Challenges
Method: Male BALB/c mice (n=5-7 per group) were sensitised on Day 1 by the topical application of 50 μL of 1% oxazolone in acetone/olive oil (4:1) on the abdominal skin. On days 8, 10, 12, 15, 17, 19, 22, 24 and 26, animals received repeated challenges with 25 μL of 0.2% oxazolone, applied topically on the inner side of their right ear. On days 8-26, 25 μL of a solution of the test compound (prepared by dissolving compound in acetone/olive oil 4:1 and heating) at the desired concentration were administered on the outer side of the right ears. On days 12, 19 and 26, right ear thickness was determined with a calliper one hour after oxazolone application.

Compound | in vivo activity in the atopic dermatitis model of example 10
CNC1CN(c2cc(CNCC3CC3)nc(N)n2)C1 [Example 1b, 4-((Cyclopropylmethylamino)methyl)-6-(3-(methylamino)azetidin-1-yl)pyrimidin-2-amine] | outstanding in vivo activity
CNC1CN(c2cc(CNC3CCCC3)nc(N)n2)C1 [Example 1t, 4-((Cyclopentylamino)methyl)-6-(3-(methylamino)azetidin-1-yl)pyrimidin-2-amine] | outstanding in vivo activity
